Measured values published in patent EP3087981A1, “HYGROPHORON B12 FOR USE IN THE TREATMENT OF A MYCOSIS” (Leibniz-Institut für Pflanzenbiochemie (IPB), priority 2015, dated 2016).
Converted amounts (≈) assume the structure as drawn.

System: Malassezia pachydermatis Isolat CBS 1879
Test: Dilution assay in 96-well microtiter plates, minimal inhibitory concentration (MHK)
Format: cell-based
Conditions: CBS1879, RPMI 1640 Medium, 2 bis 4 Tage bei 37 °C, visual evaluation, read-out: minimale Hemmkonzentration (MHK)
Text: Einer besonders bevorzugten Ausführungsform der Erfindung entsprechend wird Hygrophoron B^12 oder dessen Enantiomer, Epimere oder Diastereomere zur Verwendung bei der Behandlung einer Mykose eingesetzt, die durch Malassezia pachydermatis ausgelöst wird. Die Evaluierung der biologischen Eigenschaften des erfindungsgemäß verwendeten Hygrophorons B^12 ergab, dass Hygrophoron B^12 stark antimykotische Eigenschaften aufweist. Insbesondere weist Hygrophoron B^12 starke Aktivität gegen Malassezia pachydermatis auf. Figur 1 zeigt eine überraschend starke in vitro Aktivität des erfindungsgemäß verwendeten Hygrophorons B^12 gegen Malassezia pachydermatis, wobei die Aktivität mit dem Arzneistoff Terbinafin vergleichbar ist. Terbinafin ist ein synthetisches Antimykotikum und seit vielen Jahren das meist verordnete Präparat. In Figur 1 bezeichnet MHK die minimale HemmKonzentration (MHK). Sie ist die niedrigste Konzentration einer Substanz, bei der die Vermehrung von Mikroorganismen mit bloßem Auge nicht wahrgenommen werden kann. Die MHK wird mit einem sogenannten Titerverfahren bestimmt. Dabei wird die Konzentration von einem Wirkstoff (hier Terbinafin und Hygrophoron B^12) bestimmt, der das Wachstum von Malassezia pachydermatis gerade noch hemmt. Die MHK wird in Mikrogramm pro Milliliter (µg/ml) angegeben. […]

MIC: 0.17 µg/mL (≈ 0.544 µM)
SMILES: CCCCCCCCCCCC[C@@H](O)[C@@]1(O)C(=O)C=C[C@@H]1O [Hygrophoron B^12, (+)-cis-4,5-Dihydroxy-5-(1-hydroxytridecyl)cyclopent-2-enon]
